Source: patent publication EP1683515A2, “Bismuth-containing compounds in topical dosage forms” (Josman Laboratories, Inc., priority 1995, dated 1997)

Columns and labels:
H. Pylori [1] = conditions: as a single agent; cited from earlier work
rat mesentery culture = assay: In vitro mesentery culture model, wound closure; type: cell-based; conditions: for concentrations of growth factors EGF and FGF: 10 mcg/mL to 1,000 mcg/mL in medium with 2% fetal calf serum; for wound closure rate: 10 mcg/mL to 1,000 mcg/mL, 24-hour, 48-hour and 72-hour, compared to the placebo
Description: This tissue culture model is useful for gaining insights into growth factor interactions and wound healing.

Helicobacter pylori = assay: In vitro MIC against halitosis bacteria; type: cell-based
[2] = four hour exposure; 0.5% in artificial saliva; mild agitation
Description: Artificial saliva was used (Table 9). Table 9 THECOMPOSITION OF ARTIFICIAL SALIVA
Table 10 DENTURE MATERIALS

[3] = of the 13 adverse reaction forms, 1978 to 1986; cited from earlier work
Campylobacter rectus = assay: In vitro MIC against halitosis bacteria; type: cell-based
[4] = Freeze-injured skin graft model; type: in vivo; conditions: 10 to 1000 mcg/mL; compared to placebo
[5] = Diabetic mouse wound healing model; type: in vivo; conditions: 10 mcg/mL to 1,000 mcg/mL; compared to placebo treated wound
Experimental: Further, wound healing potential of the above bismuth compounds is evaluated using a diabetic mouse wound healing model (Matuszewska et al., Pharmaceutical Research 11(1):65-71 (1994), incorporated herein by reference).

Treponema denticola = assay: In vitro MIC against halitosis bacteria; type: cell-based
H. Pylori [6] = conditions: against H. Pylori; cited from earlier work

| Compound | eradication rate for H. Pylori (H. Pylori [1]) [%] | concentrations of growth factors EGF and FGF (rat mesentery culture) | wound closure rate (rat mesentery culture) | MIC (Helicobacter pylori) [µg/mL] | staining, discoloration, or changes in texture of natural tooth and other denture materials [2] | adverse reactions ascribed to CBS [3] | MIC (Campylobacter rectus) [µg/mL] | wound healing in cryoinjured grafts [4] | wound healing [5] | MIC (Treponema denticola) [µg/mL] | MIC range (H. Pylori [6]) [µg/mL] | minimum inhibitory concentration (MIC) (H. Pylori [6]) [µg/mL] |
| --- | --- | --- | --- | --- | --- | --- | --- | --- | --- | --- | --- | --- |
| Cc1ncc([N+](=O)[O-])n1CCO [metronidazole] | 5 |  |  |  |  |  |  |  |  |  |  |  |
| colloidal bismuth subcitrate [CBS] |  | Significantly higher | significantly faster wound closure rate and complete closure | 2 | did not cause any staining, discoloration, or changes in texture | Five | 256 | stimulates wound healing in cryoinjured grafts in a dose-related fashion | heal faster | 32 | 4 to 32 | 8 |
| Bismuth Ascorbyl Sulfate |  | Significantly higher | significantly faster wound closure rate and complete closure | 8 |  |  | 256 | stimulates wound healing in cryoinjured grafts in a dose-related fashion | heal faster | 16 |  |  |
| Bismuth Sucrose Sulfate |  |  |  | 16 |  |  | > 256 |  |  | 32 |  |  |
